Where two headings read alike, the source gives them in different places.
Legend:
IRAK4 = molecular target: T1, IRAK4 (Homo sapiens, UniProt Q9NWZ3); test: IRAK4 Human PBMC TNFα Cell Based Assay (AlphaLISA); settings: TNFα measured
T1 construct: host or cells: human peripheral blood mononuclear cells (PBMCs)
T1 sequence (Q9NWZ3 1-460): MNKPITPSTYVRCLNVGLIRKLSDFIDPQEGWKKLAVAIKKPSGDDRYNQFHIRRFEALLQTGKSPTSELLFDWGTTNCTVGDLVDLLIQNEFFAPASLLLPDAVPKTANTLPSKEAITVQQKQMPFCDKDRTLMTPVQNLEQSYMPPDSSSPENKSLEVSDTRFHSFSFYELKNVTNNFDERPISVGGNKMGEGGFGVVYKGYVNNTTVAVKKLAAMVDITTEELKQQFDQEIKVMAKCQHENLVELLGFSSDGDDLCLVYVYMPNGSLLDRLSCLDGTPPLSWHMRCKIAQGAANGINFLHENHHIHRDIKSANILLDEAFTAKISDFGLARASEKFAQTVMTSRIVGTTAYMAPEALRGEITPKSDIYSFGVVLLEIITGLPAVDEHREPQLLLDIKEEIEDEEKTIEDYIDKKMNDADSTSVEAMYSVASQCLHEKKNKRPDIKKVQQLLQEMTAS
Procedure: In this assay, serially diluted compounds were incubated with 1×10^4 human peripheral blood mononuclear cells (PBMCs) from STEMCELL (Cat #70025.1) per well of 384-well plate (Fisher Scientific; 50-905-2761) and cultured with TexMACS medium (Miltenyi, Cat #130-097-196), stimulated by R848 (0.5 μM) or IL-1β (10 ng/ml). Plates were covered with lids and incubated for 4 h (R848, Fisher Scientific, Cat #NC9801605) or 24 h (IL-1β, Fisher Scientific, Cat #ENRIL1BI) at 37° C. in a humidified tissue-culture incubator. After a brief centrifugation at 1000 rpm for 5 minutes, 5 μl of culture medium was used for the measurement of the TNFα amount using TNFα (human) AlphaLISA Detection Kit (PerkinElmer, Cat #AL208C) according to manufacturer's protocol. A biotinylated anti-TNFα antibody binds to the Streptavidin-coated Donor beads while another anti-TNFα antibody is conjugated to AlphaLISA Acceptor beads. In the presence of the TNFα, the beads come into close proximity. The excitation of the Donor beads causes the release of singlet oxygen molecules that triggers a cascade of energy transfer in the Acceptor beads, resulting in a sharp peak of light emission at 615 nm. AlphaLISA assay plates were read using PHERAstar. Percentage of inhibition was calculated as below:
(§1) % inhibition=(1−(Reading(Sample)−Reading(Negative Control))/(Reading(Positive Control)−Reading(Negative Control)))×100%
The 0% inhibition value comes from the Reading of Positive Control wells having 0 nM compound. The 100% inhibition value comes from the Reading of Negative Control wells having no R848 or IL-1β.

[1] = molecular target: T2, full length human IRAK4 protein (Homo sapiens, UniProt Q9NWZ3); test: IRAK4 Biochemical Assay (Promega ADP-Glo IRAK4 Kinase Enzyme System); settings: 3 nM enzyme, 250 μM ATP; for IC50: 2 μM MBP, 60 min at room temperature; for IRAK4 Biochemical Assay Max Inhibition (%): maximum inhibition
T2 construct: Purified full length human IRAK4 protein; purchased Signal Chem I12-10G-125
T2 sequence (Q9NWZ3 1-460): T1 sequence (Q9NWZ3 1-460)
Procedure: For the routine compound screening, an IRAK4 kinase assay was performed as follows using Promega ADP-Glo IRAK4 Kinase Enzyme System (Promega, Cat #2198-AD). Purified full length human IRAK4 protein (Signal Chem; Cat #I12-10G-125) was diluted to a concentration 6 nM in assay buffer (25 mM MOPS, pH 7.2, 12.5 mM β-glycerol-phosphate, 25 mM MgCl2, 5 mM EGTA, 2 mM EDTA, 0.0025% Brij-35, add 0.25 mM DTT to Kinase Assay Buffer prior to use) containing IRAK4 inhibitor at 2× the final concentration in 0.4% DMSO. The reaction was performed in PerkinElmer Proxiplate-384 plus white plate (Fisher Scientific, Cat #50-905-2761) and started by the addition of an equal volume of the assay buffer containing 4 μM native swine myelin basic protein (MBP) and 500 μM ATP to achieve a final concentration of 3 nM enzyme, 2 μM MBP, 250 μM ATP, 1× compound, and 0.2% DMSO. The kinase reaction was allowed to run for 60 min at room temperature (25-27° C.), then 5 μL of ADP-Glo was added to the reaction in each well followed by 40 minutes-incubation at RT. To detect converted […], 10 μL Detection Buffer was added into each well and Incubate at RT in dark for 30 minutes. Finally, luminescence was read using Tecan with 1000 ms of integration time. The luminescent signal positively correlates with ADP amount and kinase activity. Data was analyzed by GraphPad Prism and IC50 was calculated using function log(inhibitor) vs. response—Variable slope (four parameters). Percentage of inhibition was calculated as below:
as §1
The 0% inhibition value comes from the Reading of Positive Control wells having 0 nM compound. The 100% inhibition value comes from the Reading of Negative Control wells having no IRAK4 kinase.

[2] = human PBMCs stimulated by IL-1β (10 ng/ml), 24 h, read-out: IRAK4 PBMC AlphaLISA IL-1β (IC50)
[3] = human PBMCs stimulated by R848 (0.5 μM), 4 h, read-out: IRAK4 PBMC AlphaLISA R848 (IC50)

| Compound | IC50 (IRAK4; [2]) [nM] | IC50 (IRAK4; [3]) [nM] | IC50 [1] [nM] | IRAK4 Biochemical Assay Max Inhibition (%) [1] [%] |
| --- | --- | --- | --- | --- |
| CC[C@@H]1[C@H](F)C(=O)N[C@@H]1COc1ncc(C#Cc2cnccn2)c2cc(C(N)=O)c(OC)cc12 [Example 13, 1-(((2S,3S,4S)-3-ethyl-4-fluoro-5-oxopyrrolidin-2-yl)methoxy)-7-methoxy-4-(pyrazin-2-ylethynyl)isoquinoline-6-carboxamide] | 1.3 | 1.6 | 18 | 95.0 |
| CC[C@@H]1[C@H](F)C(=O)N[C@@H]1COc1ncc(C#CC(C)(C)NC(=O)OC(C)(C)C)c2cc(C(N)=O)c(OC)cc12 [Example 1, tert-butyl (4-(6-carbamoyl-1-(((2S,3S,4S)-3-ethyl-4-fluoro-5-oxopyrrolidin-2-yl)methoxy)-7-methoxyisoquinolin-4-yl)-2-methylbut-3-yn-2-yl)carbamate] | 18.1 | 16 | 8.4 | 100.0 |
| CC[C@@H]1[C@H](F)C(=O)N[C@@H]1COc1ncc(C#CC(C)(C)O)c2cc(C(N)=O)c(OC)cc12 [Example 3, 1-(((2S,3S,4S)-3-ethyl-4-fluoro-5-oxopyrrolidin-2-yl)methoxy)-4-(3-hydroxyl-3-methylbut-1-yn-1-yl)-7-methoxyisoquinoline-6-carboxamide] | 4.7 | 2.7 | 17 | 100.0 |
| CC[C@@H]1[C@H](F)C(=O)N[C@@H]1COc1ncc(C#Cc2nnn(C)n2)c2cc(C(N)=O)c(OC)cc12 [Example 21, 1-(((2S,3S,4S)-3-ethyl-4-fluoro-5-oxopyrrolidin-2-yl)methoxy)-7-methoxy-4-((2-methyl-2H-tetrazol-5-yl)ethynyl)isoquinoline-6-carboxamide] | 4.6 | 3.1 | 22 | 98.0 |
| CC[C@@H]1[C@H](F)C(=O)N[C@@H]1COc1ncc(C#Cc2cn[nH]c2)c2cc(C(N)=O)c(OC)cc12 [Example 20, 4-((1H-pyrazol-4-yl)ethynyl)-1-(((2S,3S,4S)-3-ethyl-4-fluoro-5-oxopyrrolidin-2-yl)methoxy)-7-methoxyisoquinoline-6-carboxamide] | 1.7 | 3 | 22 | 100.0 |
| CC[C@@H]1[C@H](F)C(=O)N[C@@H]1COc1ncc(C#CC(C)(C)N)c2cc(C(N)=O)c(OC)cc12 [Example 2, 4-(3-amino-3-methylbut-1-yn-1-yl)-1-(((2S,3S,4S)-3-ethyl-4-fluoro-5-oxopyrrolidin-2-yl)methoxy)-7-methoxyisoquinoline-6-carboxamide] | 25 | 16 | 63 | 100.0 |
| CC[C@@H]1[C@H](F)C(=O)N[C@@H]1COc1ccc(C#CCN(C)C)c2cc(C(N)=O)c(OC)cc12 [Example 15, 8-(3-(dimethylamino)prop-1-yn-1-yl)-5-(((2S,3S,4S)-3-ethyl-4-fluoro-5-oxopyrrolidin-2-yl)methoxy)-3-methoxy-2-naphthamide] | 1.3 | 1.7 | 12 | 101.0 |
| CC[C@@H]1[C@H](F)C(=O)N[C@@H]1COc1ncc(C#CC(C)(C)O)c2cc(C(N)=O)c(OC(C)C)cc12 [Example 29, 1-(((2S,3S,4S)-3-ethyl-4-fluoro-5-oxopyrrolidin-2-yl)methoxy)-4-(3-hydroxyl-3-methylbut-1-yn-1-yl)-7-isopropoxyisoquinoline-6-carboxamide] | 3.5 | 6.7 | 26 | 100.0 |
| COc1cc2c(OC[C@@H]3CCC(=O)N3)ncc(C#Cc3ccc(C)cc3)c2cc1C(N)=O [Example 7, (S)-7-methoxy-1-((5-oxopyrrolidin-2-yl)methoxy)-4-(p-tolylethynyl)isoquinoline-6-carboxamide] | 89 | 150 |  |  |
| CC[C@@H]1[C@H](F)C(=O)N[C@@H]1COc1ncc(C#Cc2ccncc2)c2cc(C(N)=O)c(OC)cc12 [Example 22, 1-(((2S,3S,4S)-3-ethyl-4-fluoro-5-oxopyrrolidin-2-yl)methoxy)-7-methoxy-4-(pyridin-4-ylethynyl)isoquinoline-6-carboxamide] | 0.8 | 3.4 | 23 | 100.0 |
| COc1cc2c(OC[C@@H]3CCC(=O)N3)ncc(C#CCN(C)C)c2cc1C(N)=O [Example 8, (S)-4-(3-(dimethylamino)prop-1-yn-1-yl)-7-methoxy-1-((5-oxopyrrolidin-2-yl)methoxy)isoquinoline-6-carboxamide] | 128 | 175 | 7.5 | 97.0 |
| CC[C@@H]1[C@H](F)C(=O)N[C@@H]1COc1ncc(C#Cc2ncccn2)c2cc(C(N)=O)c(OC)cc12 [Example 16, 1-(((2S,3S,4S)-3-ethyl-4-fluoro-5-oxopyrrolidin-2-yl)methoxy)-7-methoxy-4-(pyrimidin-2-ylethynyl)isoquinoline-6-carboxamide] | 8.7 | 1.7 | 19 | 99.0 |
| CC[C@@H]1[C@H](F)C(=O)N[C@@H]1COc1ncc(C#Cc2cncnc2)c2cc(C(N)=O)c(OC)cc12 [Example 12, 1-(((2S,3S,4S)-3-ethyl-4-fluoro-5-oxopyrrolidin-2-yl)methoxy)-7-methoxy-4-(pyrimidin-5-ylethynyl)isoquinoline-6-carboxamide] | 0.8 | 1.4 | 69 | 100.0 |
| CC[C@@H]1[C@H](F)C(=O)N[C@@H]1COc1ncc(C#CC(=O)O)c2cc(C(N)=O)c(OC)cc12 [Example 4, 3-(6-carbamoyl-1-(((2S,3S,4S)-3-ethyl-4-fluoro-5-oxopyrrolidin-2-yl)methoxy)-7-methoxyisoquinolin-4-yl)propiolic acid] |  |  | 5.7 | 98.0 |
| CC[C@@H]1[C@H](F)C(=O)N[C@@H]1COc1ncc(C#Cc2nn[nH]n2)c2cc(C(N)=O)c(OC)cc12 [Example 10, 4-((2H-tetrazol-5-yl)ethynyl)-1-(((2S,3S,4S)-3-ethyl-4-fluoro-5-oxopyrrolidin-2-yl)methoxy)-7-methoxyisoquinoline-6-carboxamide] |  |  | 68 | 100.0 |
